The values below come from patent US12415832B2, “B-catenin/B-cell Lymphoma 9 protein-protein interaction inhibiting peptidomimetics” (University of South Florida, priority 2019, dated 2025).

A word on the Kd: it is the concentration at which binding is half-saturated. Higher therefore signals weaker binding. For orientation: IC50 means the concentration at which inhibition is half-maximal. One may read the Ki as the equilibrium dissociation constant of an inhibitor or competing ligand from its target. Higher therefore signals weaker binding.

One assay concerns the target T1, β-catenin (Homo sapiens, UniProt P35222).
T1 sequence (P35222 1-781): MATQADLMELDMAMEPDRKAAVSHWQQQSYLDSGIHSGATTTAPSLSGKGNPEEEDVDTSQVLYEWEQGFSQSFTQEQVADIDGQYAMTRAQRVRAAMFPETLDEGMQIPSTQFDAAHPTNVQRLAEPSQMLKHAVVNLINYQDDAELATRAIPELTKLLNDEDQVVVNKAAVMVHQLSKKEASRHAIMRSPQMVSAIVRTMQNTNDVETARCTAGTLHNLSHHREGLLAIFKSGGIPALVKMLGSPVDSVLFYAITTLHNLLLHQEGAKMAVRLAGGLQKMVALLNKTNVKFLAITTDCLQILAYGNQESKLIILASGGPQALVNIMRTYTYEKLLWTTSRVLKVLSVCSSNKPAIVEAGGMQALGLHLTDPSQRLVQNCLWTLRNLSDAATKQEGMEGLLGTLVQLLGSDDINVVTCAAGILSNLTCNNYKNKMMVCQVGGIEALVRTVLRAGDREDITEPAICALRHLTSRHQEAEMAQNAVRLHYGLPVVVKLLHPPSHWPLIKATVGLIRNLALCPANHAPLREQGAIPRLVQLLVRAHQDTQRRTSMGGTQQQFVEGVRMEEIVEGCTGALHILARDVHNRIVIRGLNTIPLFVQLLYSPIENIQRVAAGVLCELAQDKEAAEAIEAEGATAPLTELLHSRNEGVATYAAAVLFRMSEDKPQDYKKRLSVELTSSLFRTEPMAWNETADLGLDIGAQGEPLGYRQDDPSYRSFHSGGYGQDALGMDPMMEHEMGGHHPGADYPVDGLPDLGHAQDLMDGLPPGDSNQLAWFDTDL
Kind of assay: FP assay, binding of peptides with β-catenin (Kd). As to conditions: for Kd: fluorescence polarization, 50 nM FITC labeled peptide, 1×PBS. (In general: Fluorescence polarisation rises when a labelled molecule tumbles more slowly, as on binding a larger partner.)

In a further assay the target is T2, β-catenin/BCL9 PPI (Homo sapiens, UniProt P35222).
T2 construct: 40 nM His6-tagged FL-β-catenin
T2 sequence (P35222 1-781): T1 sequence (P35222 1-781)
Kind of assay: AlphaScreen competitive inhibition assay of β-catenin/BCL9 PPI. Type of assay: binding. As to conditions: for IC50 / Ki: AlphaScreen, mean ± SD; for IC50: 5 nM biotinylated BCL9, 40 nM His6-tagged FL-β-catenin; for Ki: Ki derived from IC50 by method of Nikolovska-Coleska et al. On the procedure:
For the competitive inhibition assays of β-catenin/BCL9 PPI, the negative control (equivalent to 0% inhibition) refers to 5.0 nM biotinylated BCL9, 40 nM His6-tagged FL-β-catenin, and 10 μg/mL of donor and acceptor beads in a final volume of 25 μL of assay buffer, but no tested inhibitor present. The positive control (equivalent to 100% inhibition) refers to 5.0 nM biotinylated BCL9 and 10 μg/mL of donor and acceptor beads in a final volume of 25 μL of assay buffer. For the β-catenin/BCL9 assay, 5 nM biotinylated BCL9 and 40 nM His6-tagged FL-β-catenin were incubated in assay buffer at 4° C. for 30 min. Different concentrations of the tested inhibitor were added and incubated in 20 μL of assay buffer at 4° C. for another 1 h. All of the above assay plates were covered and gently mixed on an orbital shaker. The donor and acceptor beads were then added to the plates to a final concentration of 10 μg/mL in 25 μL of assay buffer. The mixture was incubated for 1 h at 4° C. before detection. The IC50 value was determined by nonlinear least-squares analysis of GraphPad Prism 5.0. The Ki values were derived from the IC50 values using a method reported by Nikolovska-Coleska et al. The assays were conducted under the conditions reported by Nikolovska-Coleska et al.'s equation for determining the Ki values. All of the experiments were performed in triplicate. The results were expressed as mean±standard deviation.

The test system of another assay is SW480 cell. Type of assay: cell-based. As to conditions: for IC50: 72 h. How it is done: Colorectal cancer cell lines SW480 were seeded in 96-well plates at 5×10^3 cells/well, maintained overnight at 37° C., and incubated in the presence of inhibitors at various concentrations. Cell viability was monitored after 72 h using a freshly prepared mixture of one-part phenazine methosulfate (PMS, Sigma) solution (0.92 mg/mL) and 19 parts MTs agent (3-(4,5-dimethylthiazol-2-yl)-5-(3-carboxymethoxyphenyl)-2-(4-sulfophenyl)-2H-tetrazolium, inner salt, Promega) solution (2 mg/mL). Cells were incubated in 10 μL of this solution at 37° C. for 3 h, and A490 was measured. The effect of each compound is expressed as the concentration required to reduce A490 by 50% (IC50) relative to vehicle-treated cells. Experiments were performed in triplicate and repeated for three times.

Another assay relates to A549 cell. Type of assay: cell-based. As to conditions: 72 h.

The compound `CCC(C)[C@@H](CN(CC(=O)N[C@@H](CC(C)C)CN(CC(=O)N[C@@H](CC(C)C)CN(CC(N)=O)S(=O)(=O)Cc1ccccc1)S(=O)(=O)CC(C)C)S(C)(=O)=O)NC(=O)CN(C[C@H](CCCNC(=N)N)NC(=O)CN(C[C@H](C)NC(=O)CN(C[C@@H](NC(=O)CN(C[C@H](CC(C)C)NC(=O)CN(C[C@H](CCCNC(=N)N)NC(=O)CN(C[C@H](CCCNC(=N)N)NC(=O)CN(C[C@H](CCC(=O)O)NC(C)=O)S(=O)(=O)CCN)S(C)(=O)=O)S(C)(=O)=O)S(=O)(=O)CCN)C(C)O)S(=O)(=O)CC(C)C)S(=O)(=O)CCN)S(=O)(=O)CC(C)C` (stereo partly shown) [Peptide 5] gave a Kd on β-catenin of 1.97 µM. Also, the figures for the IC50 at β-catenin/BCL9 PPI, in the assay with SW480 cell and in the assay on A549 cell were 2.71 µM, 132 ± 18.9 µM and 230 ± 27.5 µM, respectively. Moreover, the Ki on β-catenin/BCL9 PPI turned out to be 2.43 µM.
In the case of `CC(=O)N[C@@H](CCC(=O)O)CN(CC(=O)N[C@@H](CCCNC(=N)N)CN(CC(=O)N[C@@H](CCCNC(=N)N)CN(CC(=O)N[C@@H](CC(C)C)CN(CC(=O)N[C@H](CN(CC(=O)N[C@@H](CC(C)C)CN(CC(=O)N[C@@H](CCCNC(=N)N)CN(CC(=O)N[C@@H](C)CN(CC(=O)N[C@@H](CC(C)C)CN(CC(=O)N[C@@H](CC(C)C)CN(CC(N)=O)S(=O)(=O)Cc1ccccc1)S(=O)(=O)CC(C)C)S(C)(=O)=O)S(=O)(=O)CC(C)C)S(=O)(=O)CCN)S(=O)(=O)CC(C)C)C(C)O)S(=O)(=O)CCN)S(C)(=O)=O)S(C)(=O)=O)S(=O)(=O)CCN` (stereo partly shown) [Peptide 6], on β-catenin, the “improvement of Kd compared to the peptide 1” value is about 6 fold and binding was characterised by a dissociation constant (Kd) of 0.16 µM. On β-catenin/BCL9 PPI, the “improvement of IC50 compared to the peptide 1” value is listed as about 3 fold; the “improvement of Ki compared to the peptide 1” value is about 3 fold; the IC50 worked out at 0.54 µM; the affinity, expressed as Ki, was 0.46 µM. For the same compound, the IC50 with SW480 cell was 65.4 ± 7.06 µM. In addition, in the assay with SW480 cell (MTS), the “effect on SW480 cell proliferation, in words” value was “relatively weak activity”. Further, half-maximal inhibition in the assay on A549 cell (IC50) was put at 150 ± 19.2 µM.
On to `CCC(C)[C@@H](CN(CC(=O)N[C@@H](CC(C)C)CN(CC(=O)N[C@@H](C)CN(CC(N)=O)S(=O)(=O)Cc1ccccc1)S(=O)(=O)CC(C)C)S(C)(=O)=O)NC(=O)CN(C[C@H](CCCNC(=N)N)NC(=O)CN(C[C@H](CC(C)C)NC(=O)CN(C[C@@H](NC(=O)CN(C[C@H](CC(C)C)NC(=O)CN(C[C@H](CCCNC(=N)N)NC(=O)CN(C[C@H](CCCNC(=N)N)NC(=O)CN(C[C@H](CCC(=O)O)NC(C)=O)S(=O)(=O)CCN)S(C)(=O)=O)S(C)(=O)=O)S(=O)(=O)CCN)C(C)O)S(=O)(=O)CC(C)C)S(=O)(=O)CCN)S(=O)(=O)CC(C)C` (stereo partly shown) [Peptide 7], for which the “decrease in binding affinity relative to 2” value at β-catenin (Ala substitution) was “about 1.5 fold”. On β-catenin, this compound yielded a Kd of 0.7 µM. Also, the IC50 on β-catenin/BCL9 PPI turned out to be 1 ± 0.1 µM; in the assay with SW480 cell, 46.6 ± 5.57 µM; in the assay with A549 cell, 120 ± 13.6 µM. This compound also displayed an inhibition constant (Ki) at β-catenin/BCL9 PPI of 0.89 ± 0.08 µM.
Consider `CCC(C)[C@@H](CN(CC(=O)N[C@@H](CC(C)C)CN(CC(=O)N[C@@H](CC(C)C)CN(CC(N)=O)S(=O)(=O)Cc1ccccc1)S(=O)(=O)CC(C)C)S(C)(=O)=O)NC(=O)CN(C[C@H](CCCNC(=N)N)NC(=O)CN(C[C@H](CC(C)C)NC(=O)CN(C[C@@H](NC(=O)CN(C[C@H](CC(C)C)NC(=O)CN(C[C@H](CCCNC(=N)N)NC(=O)CN(C[C@H](CCCNC(=N)N)NC(=O)CN(C[C@H](CCC(=O)O)NC(C)=O)S(=O)(=O)CCN)S(C)(=O)=O)S(C)(=O)=O)S(=O)(=O)CCN)C(C)O)S(=O)(=O)CC(C)C)S(=O)(=O)CCN)S(C)(=O)=O` (stereo partly shown) [Peptide 8], for which, at β-catenin, the “binding activity, in words” value is recorded as “inferior binding activity” and the Kd was determined as 3.89 µM. For the same compound, on β-catenin/BCL9 PPI, the IC50 was found to be 8.01 ± 0.82 µM and the Ki came out at 7.2 ± 0.72 µM.
Consider `CC(=O)N[C@@H](CCC(=O)O)CN(CC(=O)N[C@@H](CCCNC(=N)N)CN(CC(=O)N[C@@H](CCCNC(=N)N)CN(CC(=O)N[C@@H](CC(C)C)CN(CC(=O)N[C@H](CN(CC(=O)N[C@@H](CC(C)C)CN(CC(=O)N[C@@H](CCCNC(=N)N)CN(CC(=O)N[C@@H](CCCNC(=N)N)CN(CC(=O)N[C@@H](CC(C)C)CN(CC(=O)N[C@@H](CC(C)C)CN(CC(N)=O)S(=O)(=O)Cc1ccccc1)S(=O)(=O)CC(C)C)S(C)(=O)=O)S(=O)(=O)CC(C)C)S(=O)(=O)CCN)S(=O)(=O)CC(C)C)C(C)O)S(=O)(=O)CCN)S(C)(=O)=O)S(C)(=O)=O)S(=O)(=O)CCN` (stereo partly shown) [Peptide 9], for which, on β-catenin, the “binding activity, in words” value is “inferior binding activity” and the Kd is 5.14 µM. In addition, on β-catenin/BCL9 PPI, the IC50 amounted to 12.9 ± 2.15 µM and the Ki was determined as 11.6 ± 1.92 µM.
For `CCC(C)[C@@H](CN(CC(=O)N[C@@H](CC(C)C)CN(CC(=O)N[C@@H](CC(C)C)CN(CC(N)=O)S(=O)(=O)Cc1ccccc1)S(=O)(=O)CC(C)C)S(=O)(=O)CC(C)C)NC(=O)CN(C[C@H](CCCNC(=N)N)NC(=O)CN(C[C@H](CC(C)C)NC(=O)CN(C[C@@H](NC(=O)CN(C[C@H](CC(C)C)NC(=O)CN(C[C@H](CCCNC(=N)N)NC(=O)CN(C[C@H](CCCNC(=N)N)NC(=O)CN(C[C@H](CCC(=O)O)NC(C)=O)S(=O)(=O)CCN)S(C)(=O)=O)S(C)(=O)=O)S(=O)(=O)CCN)C(C)O)S(=O)(=O)CC(C)C)S(=O)(=O)CCN)S(=O)(=O)CC(C)C` (stereo partly shown) [Peptide 10], in that order: “decreased binding activity”, 2.51 µM, 4.07 ± 0.59 µM and 3.65 ± 0.51 µM.
In the case of `CCC(C)[C@@H](CN(CC(=O)N[C@@H](C)CN(CC(=O)N[C@@H](CC(C)C)CN(CC(N)=O)S(=O)(=O)Cc1ccccc1)S(=O)(=O)CC(C)C)S(C)(=O)=O)NC(=O)CN(C[C@H](CCCNC(=N)N)NC(=O)CN(C[C@H](CC(C)C)NC(=O)CN(C[C@@H](NC(=O)CN(C[C@H](CC(C)C)NC(=O)CN(C[C@H](CCCNC(=N)N)NC(=O)CN(C[C@H](CCCNC(=N)N)NC(=O)CN(C[C@H](CCC(=O)O)NC(C)=O)S(=O)(=O)CCN)S(C)(=O)=O)S(C)(=O)=O)S(=O)(=O)CCN)C(C)O)S(=O)(=O)CC(C)C)S(=O)(=O)CCN)S(=O)(=O)CC(C)C` (stereo partly shown) [Peptide 11], at β-catenin, the “binding activity, in words” value is reported as “inferior binding activity” and the Kd stood at 8.26 µM. At β-catenin/BCL9 PPI, this compound gave an IC50 of 17.4 ± 3.35 µM and a Ki of 15.7 ± 3 µM.
`CCC(C)[C@@H](CN(CC(=O)N[C@@H](CC(C)C)CN(CC(=O)N[C@@H](C)CN(CC(N)=O)S(=O)(=O)Cc1ccccc1)S(=O)(=O)CC(C)C)S(C)(=O)=O)NC(=O)CN(C[C@H](CCCNC(=N)N)NC(=O)CN(C[C@H](C)NC(=O)CN(C[C@@H](NC(=O)CN(C[C@H](CC(C)C)NC(=O)CN(C[C@H](CCCNC(=N)N)NC(=O)CN(C[C@H](C)NC(=O)CN(C[C@H](CCC(=O)O)NC(C)=O)S(C)(=O)=O)S(C)(=O)=O)S(C)(=O)=O)S(=O)(=O)CCN)C(C)O)S(=O)(=O)CC(C)C)S(=O)(=O)CCN)S(=O)(=O)CC(C)C` (stereo partly shown) [Peptide 12] returned a Kd on β-catenin of over 10 µM. Besides, at β-catenin/BCL9 PPI, the “ability to inhibit β-catenin/BCL9 PPI, in words” value is “completely losing their ability to inhibit β-catenin/BCL9 PPI”; the IC50 is over 10 µM; the inhibition constant Ki was over 10 µM.
